According to patent EP1487791B1, “A NOVEL ANTIFUNGAL MOLECULE 2-(3,4-DIMETHYL-2,5-DIHYDRO-1H-PYRROL-2-YL)- METHYLETHYL PENTANOATE” (priority 2002, dated 2003):

Key:
[1] = tested on: A. flavus; assay: Disc diffusion assay; format: cell-based; conditions: Aspergillus flavus, 48 hrs, read-out: Diameter of zone of inhibition
Experimental: (§1) Pathogenic strains of fungi were obtained from the Mycology Department of Vallabhbhai Patel Chest Institute, Delhi. All the strains were grown on Sabouraud dextrose agar at 37°C. The conidia form these cultures were harvested and suspended in Sabouraud maltose broth. The number of conidia was counted using haemocytometer and their number in the suspension was adjusted to as per need of the experiment.
(§2) The disc diffusion test was performed as per described in the section of details of invention. Amphotericin B 1.25 µg/disc was used in assay as positive control standard drug. Additional discs impregnated with equivalent amount of solvent were also used in the assay as negative controls (Fig: 5). […] Table 2: Antifungal activity of compound by disc diffusion method

[2] = tested on: A.niger; assay: Disc diffusion assay; format: cell-based; conditions: 48 hrs
Experimental: as §1, §2

[3] = tested on: A. fumigatus; assay: In vivo efficacy, survival in mice model of aspergillosis; set-up: species or system Balb/C mice; conditions: oral; probit of percent survival against log dose
Source text: (§3) In vivo efficacy of the compound against A. fumigatus infection was studied in the Balb/C mice of 6-8 weak of age of either sex, weighing 15-20 g each. The mice model of aspergillosis described by Dixon et al (1989), was used to study the effects of compound on in vivo infection of A. fumigatus.
The animals were housed in the micro-barrier cages on sterile bedding and fed ad libitum water and food. The mice were divided into 6 groups and each group contained 8-10 animals. The mice were infected experimentally with A. fumigatus. Three days prior to infection with conidia, mice were injected subcutaneously with 3 doses (250.0 mg/kg/day) of cortisone acetate in 400.0 µl of PBS. On the infection day, each mouse received 2x10^7 conidia by nasal instillation of a single droplet of conidial suspension. […]
A. fumigatus (190/96) isolate was grown on Sabouraud dextrose agar plates at 37 °C for 4 days. […] The number of conidia, was counted and adjusted to 1x10^8 conidia/ml. The viability of the conidia was determined by plating the dilutions of suspensions on Sabouraud dextrose agar. […]
The animals were housed in properly labeled cages and kept under close watch for weight loss and the mortality. The survival rate over a period of 10 days was calculated and the fungal burden in survivors determined (Clemons and Stevens, 1994). […]

[4] = tested on: A. fumigatus; assay: Quantification of colony forming units in organs of infected mice; format: in vivo, Balb/C mice
Source text: as §3
The animals were housed in the micro-barrier cages on sterile bedding and fed ad libitum water and food. The mice were divided into 6 groups and each group contained 8-10 animals. The mice were infected experimentally with A. fumigatus. Three days prior to infection with conidia, mice were injected subcutaneously with 3 doses (250.0 mg/kg/day) of cortisone acetate in 400.0 µl of PBS. On the infection day, each mouse received 2x10^7 conidia by nasal instillation of a single droplet of conidial suspension. The animals of this model developed invasive aspergillosis and all the infected animals died within 4-6 days.
A. fumigatus (190/96) isolate was grown on Sabouraud dextrose agar plates at 37 °C for 4 days. The conidia were collected from the culture plates using PBS (pH 7.2) containing 0.05% Tween 80 (Sigma Chemicals) and the suspension was filtered through sterile glass wool. The conidia were pelleted by centrifugation at 2000 rpm and re-suspended in PBS, pH 7.2. The number of conidia, was counted and adjusted to 1x10^8 conidia/ml. The viability of the conidia was determined by plating the dilutions of suspensions on Sabouraud dextrose agar.
The dosing of the animals (cortisone treated and challenged) with compound in 6 different groups was initiated within 30 min after challenge with A. fumigatus conidia. Group I: The mice were treated orally with 7 doses of 25.0 mg/kg/day of the compound. Group II: The animals infected with A. fumigatus conidia were given 50.0 mg/kg/day of the compound for 7 days orally. Group III: The animals in this group were given 7 oral doses of 100.0 mg/kg/day of the compound. Group IV: In this group of animals, 7 oral doses of the compound (200.0 mg/kg/day) were given. Group V: The animals of this group were treated with 7 doses of 400.0 mg/kg/day orally over a period of 7 days. Group VI: The animals of this group acted as control and were treated orally with 7 doses of 400 µl PBS containing solvent.
(§4) The mice were kept under constant watch and those getting moribund, dying or survived up to 10 days were sacrificed. The autopsy was performed on the mice who had died to remove their organs for quantification of colony forming units (CFU). The lungs, livers and kidneys of the mice were removed aseptically, placed in sterile PBS (pH 7.2) and homogenized with teflon pestle mortar. The CFU in the animals were determined by plating 10 fold dilutions of organ homogenates on Sabouraud dextrose agar containing 0.05% triton X-100. The triton X-100 limited the colony size and thus greatly facilitated colony counting (Frosco, 1992). After an incubation for 48 h at 37 °C, colonies were counted and results were expressed as CFU per organ. The survival time and CFU indicating the fungal burden in various organs were considered
as §4, with “The survival time and CFU indicating the fungal burden in various organs were considered” left out

[5] = Group I, 25.0 mg/kg body weight oral
[6] = Group II, 50.0 mg/kg body weight oral
[7] = Group III, 100.0 mg/kg body weight oral
[8] = Group IV, 200.0 mg/kg body weight oral
[9] = Group V, 400.0 mg/kg body weight oral

CCCCC(=O)OC(C)CC1NCC(C)=C1C (centres unmarked) [PC-1, 2-(3,4-dimethyl-2,5-dihydro-1H-pyrrol-2-yl)-1-methylethyl pentanoate]
zone of inhibition at 5 µg/disc ([1]; 5.0 µg/disc): 6.15 mm | zone of inhibition at 10 µg/disc ([1]; 10.0 µg/disc): 8.1 mm | zone of inhibition at 20 µg/disc ([1]; 20.0 µg/disc): 9 mm | Diameter of zone of inhibition ([2]; 5.0 µg/disc): 6.40 mm | zone of inhibition at 5 µg/disc ([2]; Aspergillus niger, 5.0 µg/disc, read-out: Diameter of zone of inhibition): 6.4 mm | zone of inhibition at 10 µg/disc ([2]; Aspergillus niger, 10.0 µg/disc, read-out: Diameter of zone of inhibition): 8.6 mm | ED50 (effective dose required to confer protection in 50% of the animals) [3]: 167.0 mg/kg body weight | colony counts as compared to controls ([4]; 400 mg/kg body weight, p < 0.001): reduced the colony counts significantly | number of CFUs in the kidneys ([4]; 100.0 to 400.0 mg/kg body weight): significant reduction | CFU/Organs (Mean+ SD) Kidney [4, 5]: 1402.5+350.09 CFU/Organs | CFU/Organs (Mean+ SD) Liver [4, 5]: 255.0+72.45 CFU/Organs | CFU/Organs (Mean+ SD) Lung [4, 5]: 907.5+246.09 CFU/Organs | CFU/Organs (Mean+ SD) Kidney [4, 6]: 1040.5+441.78 CFU/Organs | CFU/Organs (Mean+ SD) Liver [4, 6]: 290.6+135.58 CFU/Organs | CFU/Organs (Mean+ SD) Lung [4, 6]: 900.0+230.29 CFU/Organs | CFU/Organs (Mean+ SD) Kidney [4, 7]: 733.3+394.69 CFU/Organs | CFU/Organs (Mean+ SD) Liver [4, 7]: 216.7+108.97 CFU/Organs | CFU/Organs (Mean+ SD) Lung [4, 7]: 650.1+171.85 CFU/Organs | CFU/Organs (Mean+ SD) Kidney [4, 8]: 683.3+352.67 CFU/Organs | CFU/Organs (Mean+ SD) Liver [4, 8]: 225.0+91.85 CFU/Organs | CFU/Organs (Mean+ SD) Lung [4, 8]: 525.0+251.56 CFU/Organs | CFU/Organs (Mean+ SD) Kidney [4, 9]: 225.0+157.39 CFU/Organs | CFU/Organs (Mean+ SD) Liver [4, 9]: 165.0+117.84 CFU/Organs | CFU/Organs (Mean+ SD) Lung [4, 9]: 180.0+127.75 CFU/Organs | effect on the CFUs in the lung tissue ([4]; doses of 25.0 and 50.0 mg/kg body weight): did not have any effect | effect of the compound on CFUs in liver ([4]; liver): very less effect
